Results from US11485740B2, “Inhibitors of TRPC6” (Boehringer Ingelheim International GmbH, priority 2018, dated 2022).
pIC50: −log10 of the molar value.

molecular target: T1, human TRPC6 (Homo sapiens, UniProt Q9Y210); assay: High throughput screening assay: Fluo4/AM calcium fluorescence in HEK293/TREx cells expressing human TRPC6, agonist GSK1702934A (single concentration 10 μM and IC50 curves); format: cell-based; conditions: antagonist effect against human TRPC6, 7 concentrations 20 μM to 0.027 μM, triplicate
T1 construct: expressed in transfected cells
T1 sequence (Q9Y210 1-931): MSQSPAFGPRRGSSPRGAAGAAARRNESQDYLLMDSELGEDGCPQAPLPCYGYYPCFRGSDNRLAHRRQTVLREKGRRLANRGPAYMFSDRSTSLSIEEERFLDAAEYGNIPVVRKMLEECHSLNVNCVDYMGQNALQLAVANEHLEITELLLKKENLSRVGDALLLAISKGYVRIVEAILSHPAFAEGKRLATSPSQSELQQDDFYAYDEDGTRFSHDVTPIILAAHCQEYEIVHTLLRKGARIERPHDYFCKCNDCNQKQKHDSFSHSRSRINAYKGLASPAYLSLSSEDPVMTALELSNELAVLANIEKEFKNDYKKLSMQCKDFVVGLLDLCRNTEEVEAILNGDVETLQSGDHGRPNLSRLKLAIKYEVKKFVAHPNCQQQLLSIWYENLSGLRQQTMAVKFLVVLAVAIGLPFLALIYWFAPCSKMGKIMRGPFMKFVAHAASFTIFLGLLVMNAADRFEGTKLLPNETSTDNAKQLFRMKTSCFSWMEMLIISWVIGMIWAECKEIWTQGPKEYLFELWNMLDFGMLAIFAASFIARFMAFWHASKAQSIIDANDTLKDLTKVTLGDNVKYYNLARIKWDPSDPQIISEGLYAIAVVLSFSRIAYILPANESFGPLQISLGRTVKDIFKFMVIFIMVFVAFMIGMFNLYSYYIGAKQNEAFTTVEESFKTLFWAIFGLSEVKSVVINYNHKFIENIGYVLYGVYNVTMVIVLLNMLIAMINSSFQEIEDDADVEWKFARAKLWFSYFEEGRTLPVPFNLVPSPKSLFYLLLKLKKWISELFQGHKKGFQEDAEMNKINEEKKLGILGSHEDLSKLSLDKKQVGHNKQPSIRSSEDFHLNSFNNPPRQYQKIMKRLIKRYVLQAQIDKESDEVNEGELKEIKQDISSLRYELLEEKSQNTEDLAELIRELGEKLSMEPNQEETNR
Excerpt: High Throughput Screening Assay
This screening assay measures human TRPC6 (transient receptor potential cation channel, subfamily C, member 6) ion channel activation via addition either of the commercially available DAG ligand analogue OAG (1-oleoyl-2-acetyl-sn-glycerol) or of the TRPC6 agonist 1-[1-(4,5,6,7,8-pentahydrocyclohepta[2,1-d]thiophen-2-ylcarbonyl)-4-piperidyl]-3-hydrobenzimidazol-2-one (GSK1702934A). The assay utilizes a fluorescent calcium sensor 4-(6-Acetoxymethoxy-2,7-difluoro-3-oxo-9-xanthenyl)-4′-methyl-2,2′-(ethylenedioxy)dianiline-N,N,N′,N′-tetraacetic acid tetrakis(acetoxymethyl) ester (Fluo4/AM) dye from Molecular Devices. Changes (increases) in intracellular calcium concentration as measured by the fluorescent signal increase provide a measurement of channel activity.
The commercially available HEK293/TREx line (Invitrogen) was stably transfected with a human TRPC6 construct and screened by conventional calcium imaging to find clones with human TRPC6 expression following stimulation with 1 μg/ml tetracycline. These cells were maintained in the growth medium recommended by the manufacturer supplemented with 100 μg/ml hygromycin to promote retention of the human TRPC6 construct. After growing to near confluency, cells were plated at a density of ^˜35,000 cells/well in 384 well CellBind plates (Corning) in the presence of 1 μg/ml tetracycline, and allowed to grow for 20-30 hrs. A nearly confluent monolayer resulted. Growth media was removed from the wells and cells were then loaded with […] Fluo4/AM diluted in Ringer's Solution (6.5 g NaCl, 0.42 g KCl, 0.25 g CaCl2) and 0.2 g of sodium bicarbonate; pH 7.4) supplemented with 1% Pluronic F-127 to a final concentration of 0.5 μM and incubated for 60 min, at room temperature. Dye solution was then removed from the cells by inverting plates with a sharp flick, and replaced with 25 μl Ringer's. Following ^˜0.5 hour for recovery from loading, cells were assayed using the Hamamatsu FDSS 6000 system, which permitted illumination at 485 nm. Frames were acquired at a rate of 0.2 Hz. During the assay, the plates were continuously vortexed, with pipette mixing of wells following addition of each reagent. For the screening assay, 26 μl of a diluted compound stock (at 50 μM) was added to each well for 2 minutes following the collection of a short (4 frame) baseline. 13 μl of agonist solution consisting of 125 nM GSK1702934A diluted in high-Ca2+Ringer solution (containing 90 mM Ca2+) was then added to each well, achieving a final concentration of 20 mM Ca2+ and 10 μM test compound. Data was collected for ^˜3 minutes following addition of high Ca2+Ringer. The fluorescent intensity observed at a particular timepoint for each well was divided by the initial fluorescent intensity for that well and the overall response was determined by averaging the resulting fluorescent ratio of the last 4 frames acquired during the experiment excepting the final frame. Negative and Positive controls were included on each plate. Negative controls wells consisted of HEK293/TREx TRPC6 cells exposed to assay buffer and agonist solution, but no test compound. Positive control consisted of wells consisted of HEK293/TREx TRPC6 cells exposed to 25 μM 3-[(2-chlorophenoxy)methyl]phenyl piperidyl ketone (Chembridge) diluted in Ringer's solution and agonist solution. These controls defined zero percent and 100 percent block respectively, and intensity of each well was normalized to these values.
Compounds were tested in triplicate at all concentrations. Standard software was used to fit IC50 curves.

pIC50	SMILES
6.74	COc1cc(C(=O)N2CCC(c3ccc(N)nn3)CC2)ncc1-c1ccc(C(F)F)cc1 [Compound 38, [4-(6-Amino-pyridazin-3-yl)-piperidin-1-yl]-[5-(4-difluoromethyl-phenyl)-4-methoxy-pyridin-2-yl]-methanone]
6.49	COc1cc(C(=O)N2CCC(c3ccc(N)nn3)CC2)ncc1-c1ccc(OC(F)F)cc1 [Compound 39, [4-(6-Amino-pyridazin-3-yl)-piperidin-1-yl]-[5-(4-difluoromethoxy-phenyl)-4-methoxy-pyridin-2-yl]-methanone]
7.14	COc1cc(C(=O)N2CCC(c3ccc(N)nn3)CC2)ncc1-c1ccc(Cl)cc1 [Compound 40, [4-(6-Amino-pyridazin-3-yl)-piperidin-1-yl]-[5-(4-chloro-phenyl)-4-methoxy-pyridin-2-yl]-methanone]
6.89	COc1cc(C(=O)N2CCC(c3ccc(N)nn3)CC2)ncc1-c1ccc(OC2CC2)cc1 [Compound 41, [4-(6-Amino-pyridazin-3-yl)-piperidin-1-yl]-[5-(4-cyclopropoxy-phenyl)-4-methoxy-pyridin-2-yl]-methanone]
6.15	COc1cc(C(=O)N2CCC(c3ccc(N)nn3)CC2)ncc1-c1ccc(C(F)(F)F)nc1 [Compound 42]
6.41	COc1cc(C(=O)N2CCC(c3ccc(N)nn3)CC2)ncc1-c1ccc(C2CC2)nc1 [Compound 43, [4-(6-Amino-pyridazin-3-yl)-piperidin-1-yl]-(6′-cyclopropyl-4-methoxy-[3,3′]bipyridinyl-6-yl)-methanone]
5.77	CCc1ccc(-c2cnc(C(=O)N3CCC(c4ccc(N)nn4)CC3)cc2OC)cn1 [Compound 44, [4-(6-Amino-pyridazin-3-yl)-piperidin-1-yl]-(6′-ethyl-4-methoxy-[3,3′]bipyridinyl-6-yl)-methanone]
6.36	CCOc1ccc(-c2cnc(C(=O)N3CCC(c4ccc(N)nn4)CC3)cc2OC)cn1 [Compound 45, [4-(6-Amino-pyridazin-3-yl)-piperidin-1-yl]-(6′-ethoxy-4-methoxy-[3,3′]bipyridinyl-6-yl)-methanone]
5.40	COc1ccc(-c2cnc(C(=O)N3CCC(c4ccc(N)nn4)CC3)cc2OC)cn1 [Compound 46, [4-(6-Amino-pyridazin-3-yl)-piperidin-1-yl]-(4,6′-dimethoxy-[3,3′]bipyridinyl-6-yl)-methanone]
6.70	COc1cc(C(=O)N2CCC(c3ccc(N)nn3)CC2)ncc1-c1ccc(OCC(F)(F)F)nc1 [Compound 47, [4-(6-Amino-pyridazin-3-yl)-piperidin-1-yl]-[4-methoxy-6′-(2,2,2-trifluoro-ethoxy)-[3,3′]bipyridinyl-6-yl]-methanone]
6.89	COc1cc(C(=O)N2CCC(c3ccc(N)nn3)CC2)ncc1-c1ccc(OC(F)(F)F)nc1 [Compound 48, [4-(6-Amino-pyridazin-3-yl)-piperidin-1-yl]-(4-methoxy-6′-trifluoromethoxy-[3,3′]bipyridinyl-6-yl)-methanone]

Second part, the molecule before the results:

SMILES	pIC50
COc1cc(C(=O)N2CCC(c3ccc(N)nn3)CC2)ncc1-c1ccc(C(F)(F)F)c(F)c1 [Compound 26, [4-(6-Amino-pyridazin-3-yl)-piperidin-1-yl]-[5-(3-fluoro-4-trifluoromethyl-phenyl)-4-methoxy-pyridin-2-yl]-methanone]	7.24
COc1cc(C(=O)N2CCC(c3ccc(N)nn3)CC2)ncc1-c1ccc(C(F)(F)F)cc1 [Compound 27, 6-(1-{4-Methoxy-5-[4-(trifluoromethyl)phenyl]pyridine-2-carbonyl}piperidin-4-yl)pyridazin-3-amine]	7.44
COc1ccc(-c2cnc(C(=O)N3CCC(c4ccc(N)nn4)CC3)cc2OC)cc1 [Compound 28, [4-(6-Amino-pyridazin-3-yl)-piperidin-1-yl]-[4-methoxy-5-(4-methoxy-phenyl)-pyridin-2-yl]-methanone]	6.72
COc1cc(C(=O)N2CCC(c3ccc(N)nn3)CC2)ncc1-c1ccc(OCC(F)(F)F)cc1 [Compound 29, [4-(6-Amino-pyridazin-3-yl)-piperidin-1-yl]-{4-methoxy-5-[4-(2,2,2-trifluoro-ethoxy)-phenyl]-pyridin-2-yl}-methanone]	6.96
COc1cc(C(=O)N2CCC(c3ccc(N)nn3)CC2)ncc1-c1ccc(OC(C)C)cc1 [Compound 30, [4-(6-Amino-pyridazin-3-yl)-piperidin-1-yl]-[5-(4-isopropoxy-phenyl)-4-methoxy-pyridin-2-yl]-methanone]	6.47
COc1cc(C(=O)N2CCC(c3ccc(N)nn3)CC2)ncc1-c1ccc(OC(F)(F)F)cc1 [Compound 31, [4-(6-Amino-pyridazin-3-yl)-piperidin-1-yl]-[4-methoxy-5-(4-trifluoromethoxy-phenyl)-pyridin-2-yl]-methanone]	7.03
COc1cc(C(=O)N2CCC(c3ccc(N)nn3)CC2)ncc1-c1ccccc1 [Compound 32, [4-(6-Amino-pyridazin-3-yl)-piperidin-1-yl]-(4-methoxy-5-phenyl-pyridin-2-yl)-methanone]	6.96
COc1cc(C(=O)N2CCC(c3ccc(N)nn3)CC2)ncc1-c1ccc(F)c(F)c1 [Compound 33, [4-(6-Amino-pyridazin-3-yl)-piperidin-1-yl]-[5-(3,4-difluoro-phenyl)-4-methoxy-pyridin-2-yl]-methanone]	7.21
COc1cc(C(=O)N2CCC(c3ccc(N)nn3)CC2)ncc1-c1ccc(C)c(F)c1 [Compound 34, [4-(6-Amino-pyridazin-3-yl)-piperidin-1-yl]-[5-(3-fluoro-4-methyl-phenyl)-4-methoxy-pyridin-2-yl]-methanone]	7.00
COc1cc(C(=O)N2CCC(c3ccc(N)nn3)CC2)ncc1-c1cccc(F)c1 [Compound 35, 6-{1-[5-(3-Fluorophenyl)-4-methoxypyridine-2-carbonyl]piperidin-4-yl}pyridazin-3-amine]	6.66
COc1cc(C(=O)N2CCC(c3ccc(N)nn3)CC2)ncc1-c1ccc(F)cc1 [Compound 36, 6-{1-[5-(4-Fluorophenyl)-4-methoxypyridine-2-carbonyl]piperidin-4-yl}pyridazin-3-amine]	7.57
CCOc1ccc(-c2cnc(C(=O)N3CCC(c4ccc(N)nn4)CC3)cc2OC)cc1 [Compound 37, [4-(6-Amino-pyridazin-3-yl)-piperidin-1-yl]-[5-(4-ethoxy-phenyl)-4-methoxy-pyridin-2-yl]-methanone]	6.49
